According to ChEMBL document CHEMBL1127244, “Alternative strategies towards the identification of chemical lead compounds by rational design” (Bioorg Med Chem Lett, 1994):

Assays:
[1] = target: T1, Substance-P receptor (Cavia porcellus, UniProt P30547); experiment: Binding affinity towards NK-1 receptor in guinea pig cerebral cortex using [125I]Bolton-Hunter substance P as radioligand; Inactive (>>10 uM); assay type: tissue-based
[2] = target: T2, Neuromedin-K receptor (Cavia porcellus, UniProt P30098); experiment: Binding affinity towards Tachykinin receptor 3 in guinea pig cerebral cortex using [3H]senktide as radioligand; Inactive (>>10 uM); assay type: tissue-based
T2 sequence (P30098 whole entry): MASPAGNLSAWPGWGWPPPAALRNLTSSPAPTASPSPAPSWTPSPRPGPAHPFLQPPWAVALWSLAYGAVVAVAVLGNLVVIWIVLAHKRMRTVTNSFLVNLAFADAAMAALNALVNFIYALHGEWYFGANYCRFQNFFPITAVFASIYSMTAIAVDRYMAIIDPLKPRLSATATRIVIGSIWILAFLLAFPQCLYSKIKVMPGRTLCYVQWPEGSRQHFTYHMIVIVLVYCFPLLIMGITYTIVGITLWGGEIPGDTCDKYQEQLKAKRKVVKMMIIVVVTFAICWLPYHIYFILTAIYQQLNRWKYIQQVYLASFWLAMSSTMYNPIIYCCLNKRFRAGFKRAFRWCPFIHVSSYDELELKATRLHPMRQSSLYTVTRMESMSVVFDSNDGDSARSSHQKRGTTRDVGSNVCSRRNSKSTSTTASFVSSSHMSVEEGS

[3] = target: T3, Substance-K receptor (Mesocricetus auratus, UniProt P51144); experiment: Binding affinity towards Tachykinin receptor 2 in hamster urinary bladder using [125I]neurokinin A as radioligand; Value ranges from 2.6-11 uM
T3 sequence (P51144 whole entry): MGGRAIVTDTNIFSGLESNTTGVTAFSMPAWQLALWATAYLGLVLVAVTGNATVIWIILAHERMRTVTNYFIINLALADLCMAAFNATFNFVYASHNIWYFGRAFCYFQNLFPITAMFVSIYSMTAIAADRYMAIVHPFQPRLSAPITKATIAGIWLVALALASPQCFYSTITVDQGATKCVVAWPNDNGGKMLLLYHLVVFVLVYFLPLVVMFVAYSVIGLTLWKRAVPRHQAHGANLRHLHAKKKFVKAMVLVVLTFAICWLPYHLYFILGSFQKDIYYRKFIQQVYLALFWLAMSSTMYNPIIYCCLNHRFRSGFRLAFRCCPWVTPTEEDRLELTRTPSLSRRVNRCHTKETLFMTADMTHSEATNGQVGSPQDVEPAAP

[4] = target: T2, Neuromedin-K receptor; experiment: Binding affinity towards Tachykinin receptor 3 in guinea pig cerebral cortex using [3H]senktide as radioligand; Value ranges from 8.2-9.4 uM; assay type: tissue-based
[5] = target: T3, Substance-K receptor; experiment: Binding affinity towards Tachykinin receptor 2 in hamster urinary bladder using [125I]-Neurokinin A as radioligand; Inactive (>>10 uM); assay type: tissue-based
[6] = target: T4, Cholecystokinin receptor type A (Rattus norvegicus, UniProt P30551); experiment: Binding affinity towards CCK-A receptor in rat pancreas using [125I]Bolton-Hunter CCK-8 as radioligand; Value ranges from 3.3-5.4 uM; assay type: tissue-based
T4 sequence (P30551 whole entry): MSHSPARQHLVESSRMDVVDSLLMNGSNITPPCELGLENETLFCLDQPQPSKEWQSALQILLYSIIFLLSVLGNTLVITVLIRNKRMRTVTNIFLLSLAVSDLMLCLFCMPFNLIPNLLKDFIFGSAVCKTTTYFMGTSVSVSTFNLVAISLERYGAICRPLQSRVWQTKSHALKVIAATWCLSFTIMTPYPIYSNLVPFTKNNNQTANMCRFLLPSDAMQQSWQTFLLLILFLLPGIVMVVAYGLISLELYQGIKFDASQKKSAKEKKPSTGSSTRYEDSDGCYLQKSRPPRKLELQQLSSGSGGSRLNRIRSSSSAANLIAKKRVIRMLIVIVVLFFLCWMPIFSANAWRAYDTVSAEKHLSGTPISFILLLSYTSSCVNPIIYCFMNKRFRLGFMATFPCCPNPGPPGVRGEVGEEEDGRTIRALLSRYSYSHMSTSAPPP

[7] = target: T5, Gastrin/cholecystokinin type B receptor (Mus musculus, UniProt P56481); experiment: Binding affinity towards CCK-B receptor in mouse cerebral cortex using [125I]Bolton-Hunter CCK-8 as radioligand; Value ranges from 9.8-25 uM; assay type: tissue-based
T5 sequence (P56481 whole entry): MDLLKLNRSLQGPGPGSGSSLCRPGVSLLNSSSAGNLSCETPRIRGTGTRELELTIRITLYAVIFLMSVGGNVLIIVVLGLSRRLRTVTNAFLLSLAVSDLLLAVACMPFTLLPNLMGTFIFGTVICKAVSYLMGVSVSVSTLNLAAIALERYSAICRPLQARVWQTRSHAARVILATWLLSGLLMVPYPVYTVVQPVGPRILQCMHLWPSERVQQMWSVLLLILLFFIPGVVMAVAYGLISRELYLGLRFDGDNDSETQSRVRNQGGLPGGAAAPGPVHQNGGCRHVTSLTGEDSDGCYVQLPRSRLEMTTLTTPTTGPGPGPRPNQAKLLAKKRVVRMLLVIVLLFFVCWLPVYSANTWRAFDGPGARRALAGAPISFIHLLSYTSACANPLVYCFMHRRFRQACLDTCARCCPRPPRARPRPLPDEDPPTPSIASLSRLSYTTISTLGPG

[8] = target: T4, Cholecystokinin receptor type A; experiment: Binding affinity towards CCK-A receptor in rat pancreas using [125I]Bolton-Hunter CCK-8 as radioligand; Value ranges from 11-16 uM; assay type: tissue-based
[9] = target: T1, Substance-P receptor; experiment: Binding affinity towards NK-1 receptor in guinea pig cerebral cortex using [125I]-Bolton-Hunter substance P as radioligand; Value ranges from 7.3-8.8 uM; assay type: tissue-based
[10] = target: T5, Gastrin/cholecystokinin type B receptor; experiment: Binding affinity towards CCK-B receptor in mouse cerebral cortex using [125I]Bolton-Hunter CCK-8 as radioligand; Inactive (>>10 uM); assay type: tissue-based
[11] = target: T4, Cholecystokinin receptor type A; experiment: Binding affinity towards CCK-A receptor in rat pancreas using [125I]Bolton-Hunter CCK-8 as radioligand; Value ranges from 4.7-7.1 uM; assay type: tissue-based
[12] = target: T5, Gastrin/cholecystokinin type B receptor; experiment: Binding affinity towards CCK-B receptor in mouse cerebral cortex using [125I]Bolton-Hunter CCK-8 as radioligand; Value ranges from 7.8-9.3 uM; assay type: tissue-based
[13] = target: T4, Cholecystokinin receptor type A; experiment: Binding affinity towards CCK-A receptor in rat pancreas using [125I]Bolton-Hunter CCK-8 as radioligand; Value ranges from 3.5-4.6 uM; assay type: tissue-based
[14] = target: T4, Cholecystokinin receptor type A; experiment: Binding affinity towards CCK-A receptor in rat pancreas using [125I]Bolton-Hunter CCK-8 as radioligand; Value ranges from 12-20 uM; assay type: tissue-based
[15] = target: T2, Neuromedin-K receptor; experiment: Binding affinity towards Tachykinin receptor 3 in guinea pig cerebral cortex using [3H]senktide as radioligand; Value ranges from 5.8-14u M; assay type: tissue-based
[16] = target: T3, Substance-K receptor; experiment: Binding affinity towards Tachykinin receptor 2 in hamster urinary bladder using [125I]neurokinin A as radioligand; Value ranges from 4.6-9.0 uM
[17] = target: T4, Cholecystokinin receptor type A; experiment: Binding affinity towards CCK-A receptor in rat pancreas using [125I]Bolton-Hunter CCK-8 as radioligand; Value ranges from 4.1-6.4 uM; assay type: tissue-based

T1 sequence (P30547 whole entry): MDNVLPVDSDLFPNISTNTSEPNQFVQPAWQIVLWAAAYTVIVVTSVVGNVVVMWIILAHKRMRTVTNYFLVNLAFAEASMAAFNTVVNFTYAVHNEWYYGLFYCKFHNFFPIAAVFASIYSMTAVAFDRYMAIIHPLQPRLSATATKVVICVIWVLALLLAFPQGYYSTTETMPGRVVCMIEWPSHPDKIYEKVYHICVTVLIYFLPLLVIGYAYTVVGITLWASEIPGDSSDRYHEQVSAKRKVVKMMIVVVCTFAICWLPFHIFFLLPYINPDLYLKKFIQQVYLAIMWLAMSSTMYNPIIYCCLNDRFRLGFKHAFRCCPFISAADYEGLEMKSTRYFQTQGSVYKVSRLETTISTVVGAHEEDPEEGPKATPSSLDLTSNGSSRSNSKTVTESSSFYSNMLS

IC50 [1]	IC50 [2]	IC50 [5]	IC50 [10]	SMILES	also measured
Not Active	Not Active			O=C1CCN(C(=O)CCc2c[nH]c3ccccc23)CC1Cc1ccccc1 (stereo unspecified)	IC50 [3]: 6.9 µM
Not Active	Not Active	Not Active		O=C1[C@H](Cc2c[nH]c3ccccc23)CN(Cc2ccccc2)C[C@@H]1Cc1c[nH]c2ccccc12	IC50 [6]: 4.1 µM; IC50 [7]: 15 µM
	Not Active	Not Active	Not Active	O=C1CCN(C(=O)OCc2ccccc2)CC1Cc1ccccc1 (stereo unspecified)	IC50 [8]: 13 µM; IC50 [9]: 8.1 µM

The next lines start with the compound.

SMILES	IC50 [1]	IC50 [2]	IC50 [5]	IC50 [10]	also measured
OC1CCN(Cc2ccccc2)C[C@@H]1Cc1c[nH]c2ccccc12 (stereo partly specified)	Not Active		Not Active		IC50 [4]: 8.8 µM
CCOP(=O)(OCC)OC1=CCN(Cc2ccccc2)CC1Cc1cn(C(=O)OC(C)(C)C)c2ccccc12 (stereo unspecified)	Not Active	Not Active	Not Active		IC50 [11]: 5.5 µM; IC50 [12]: 8.5 µM
O=C1C(Cc2c[nH]c3ccccc23)CN(Cc2ccccc2)C[C@@H]1Cc1c[nH]c2ccccc12 (stereo partly specified)	Not Active	Not Active	Not Active	Not Active	IC50 [13]: 4 µM
O=C1CCN(Cc2ccccc2)CC1Cc1c[nH]c2ccccc12 (stereo unspecified)	Not Active			Not Active	IC50 [14]: 16 µM; IC50 [15]: 10 µM; IC50 [16]: 6.8 µM
CC(C)(C)OC(=O)n1cc(CC2CN(Cc3ccccc3)CCC2O)c2ccccc21 (stereo unspecified)	Not Active	Not Active	Not Active	Not Active	IC50 [17]: 5.2 µM
